In patent US6548480B1, “Phosphonic acid derivatives with metallopeptidase inhibitory activity” (Zambon Group S.p.A., priority 1995, dated 2003):
Counter-ions that a name gives are not always drawn.

Key:
ACE [1] = target: T1, ACE (Oryctolagus cuniculus, UniProt P12822); assay: In vitro ACE-inhibitory activity (FAPGG substrate, spectrophotometric); format: biochemical; details: ACE purified by lung rabbit, FAPGG 0.8 mM, 37° C.; compounds of formula I tested as lithium salts
T1 construct: ACE (250 mU/ml purified by lung rabbit, EC 3.4.15.1 SIGMA); purchased SIGMA; host or cells: rabbit lung
T1 sequence (P12822 34-1310): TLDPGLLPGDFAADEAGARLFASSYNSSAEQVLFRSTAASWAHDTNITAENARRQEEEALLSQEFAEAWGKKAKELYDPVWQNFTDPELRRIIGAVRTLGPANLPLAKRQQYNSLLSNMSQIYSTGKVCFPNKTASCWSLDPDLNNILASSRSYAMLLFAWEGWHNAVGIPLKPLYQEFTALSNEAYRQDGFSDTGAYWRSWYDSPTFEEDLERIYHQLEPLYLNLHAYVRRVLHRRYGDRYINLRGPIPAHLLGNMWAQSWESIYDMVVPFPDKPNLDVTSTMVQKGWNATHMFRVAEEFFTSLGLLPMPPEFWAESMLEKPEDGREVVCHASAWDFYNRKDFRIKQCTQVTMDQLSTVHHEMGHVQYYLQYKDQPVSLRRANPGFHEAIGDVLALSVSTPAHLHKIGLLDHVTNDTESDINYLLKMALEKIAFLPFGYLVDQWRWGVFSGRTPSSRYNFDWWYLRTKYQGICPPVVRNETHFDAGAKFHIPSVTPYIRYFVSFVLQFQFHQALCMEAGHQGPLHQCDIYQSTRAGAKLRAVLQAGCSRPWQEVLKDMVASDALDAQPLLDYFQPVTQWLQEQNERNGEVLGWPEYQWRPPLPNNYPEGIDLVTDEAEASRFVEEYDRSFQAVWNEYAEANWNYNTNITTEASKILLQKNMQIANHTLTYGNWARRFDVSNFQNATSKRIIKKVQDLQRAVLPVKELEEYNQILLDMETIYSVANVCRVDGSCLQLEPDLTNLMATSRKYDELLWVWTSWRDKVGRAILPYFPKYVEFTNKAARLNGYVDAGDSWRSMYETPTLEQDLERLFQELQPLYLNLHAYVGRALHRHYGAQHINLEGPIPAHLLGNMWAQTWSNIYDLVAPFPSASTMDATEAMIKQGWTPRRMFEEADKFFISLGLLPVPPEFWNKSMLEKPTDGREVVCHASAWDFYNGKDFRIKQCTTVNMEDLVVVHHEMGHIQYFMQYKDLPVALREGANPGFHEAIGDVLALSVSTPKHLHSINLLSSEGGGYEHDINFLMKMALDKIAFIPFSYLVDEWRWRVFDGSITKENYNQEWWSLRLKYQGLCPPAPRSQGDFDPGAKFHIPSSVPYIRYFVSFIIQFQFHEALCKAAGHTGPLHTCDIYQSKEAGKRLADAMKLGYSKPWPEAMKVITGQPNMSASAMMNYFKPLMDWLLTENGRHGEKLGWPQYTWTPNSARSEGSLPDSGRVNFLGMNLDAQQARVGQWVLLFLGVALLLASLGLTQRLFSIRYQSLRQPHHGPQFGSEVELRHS
Method: The reaction was started by adding furylacryloylphenylalanylglycylglycine 0.8 mM (FAPGG-SIGMA).
Contemporaneously, by using a Beckman DU-50 spectrophotometer provided with a program for calculating delta A/minutes and regression coefficients of the enzyme kinetics curves, the absorbance at 340 nm was recorded in continuo for 5 minutes.

ACE [2] = target: T2, ACE (Rattus norvegicus, UniProt P47820); assay: Ex vivo ACE-inhibitory activity in lungs of SHR after i.v. injection; parameters: species or system spontaneously hypertensive rats (SHR); details: iv, 5 minutes after i.v. injection, 21 μmoles/kg, read-out: ACE-inhibitory activity (lung) % of inhibition
T2 construct: After the removal of the lungs from SHR, the lung tissue was homogenized; from tissue; host or cells: lung homogenate of spontaneously hypertensive rats (SHR) dosed i.v
T2 sequence (P47820 36-1313): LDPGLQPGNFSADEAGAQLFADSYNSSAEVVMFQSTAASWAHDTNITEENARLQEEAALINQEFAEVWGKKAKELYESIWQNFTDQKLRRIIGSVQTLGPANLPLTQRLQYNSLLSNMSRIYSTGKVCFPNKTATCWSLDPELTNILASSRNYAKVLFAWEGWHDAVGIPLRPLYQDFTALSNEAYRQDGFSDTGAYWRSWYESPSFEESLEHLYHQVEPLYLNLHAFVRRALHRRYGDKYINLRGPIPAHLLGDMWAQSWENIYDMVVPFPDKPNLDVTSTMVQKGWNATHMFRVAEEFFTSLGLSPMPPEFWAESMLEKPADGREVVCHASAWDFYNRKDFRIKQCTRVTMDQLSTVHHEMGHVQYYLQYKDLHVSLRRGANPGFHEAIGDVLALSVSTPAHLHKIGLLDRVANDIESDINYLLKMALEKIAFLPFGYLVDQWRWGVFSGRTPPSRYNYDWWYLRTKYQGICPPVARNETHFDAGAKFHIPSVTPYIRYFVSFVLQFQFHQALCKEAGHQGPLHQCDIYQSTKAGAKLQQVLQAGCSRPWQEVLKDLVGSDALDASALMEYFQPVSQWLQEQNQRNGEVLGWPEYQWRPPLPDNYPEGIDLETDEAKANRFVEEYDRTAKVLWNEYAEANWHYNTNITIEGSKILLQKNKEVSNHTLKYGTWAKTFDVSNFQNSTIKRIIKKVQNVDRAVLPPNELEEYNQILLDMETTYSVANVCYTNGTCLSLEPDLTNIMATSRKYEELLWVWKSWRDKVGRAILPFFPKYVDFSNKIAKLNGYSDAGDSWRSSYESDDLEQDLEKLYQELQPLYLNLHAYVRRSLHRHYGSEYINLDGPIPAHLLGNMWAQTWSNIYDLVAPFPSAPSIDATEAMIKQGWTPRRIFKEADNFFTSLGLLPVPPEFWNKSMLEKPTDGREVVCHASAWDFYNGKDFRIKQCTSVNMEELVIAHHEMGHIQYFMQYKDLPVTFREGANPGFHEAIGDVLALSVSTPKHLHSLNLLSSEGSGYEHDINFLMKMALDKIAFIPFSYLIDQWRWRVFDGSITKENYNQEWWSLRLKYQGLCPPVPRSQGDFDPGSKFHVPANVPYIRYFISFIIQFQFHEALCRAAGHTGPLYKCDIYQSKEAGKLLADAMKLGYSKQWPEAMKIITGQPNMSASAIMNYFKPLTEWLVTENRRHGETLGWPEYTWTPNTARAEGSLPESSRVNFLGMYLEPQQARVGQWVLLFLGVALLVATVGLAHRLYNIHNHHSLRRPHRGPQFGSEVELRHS
Method: After the removal of the lungs from SHR, the lung tissue was homogenized and incubated for 2 hours at 37° C. in the presence of [^3H]Hyp-Gly-Gly, as a substrate.
The reaction was stopped by adding hydrochloric acid.
The released radio-labelled hyppuric acid was extracted with ethyl acetate and counted by liquid scintillation spectrometry, according to conventional methods.

NEP [3] = target: T3, NEP (Rattus norvegicus, UniProt P07861); assay: In vitro NEP-inhibitory activity in rat kidney cortex membranes ([3H][Leu5]-enkephaline hydrolysis); format: biochemical; parameters: from tissue; host or cells: kidney cortex membranes of male Sprague-Dawley rats; details: [3H][Leu5]-enkephaline 15 nM, 30° C., compounds of formula I tested as lithium salts
T3 sequence (P07861 1-750): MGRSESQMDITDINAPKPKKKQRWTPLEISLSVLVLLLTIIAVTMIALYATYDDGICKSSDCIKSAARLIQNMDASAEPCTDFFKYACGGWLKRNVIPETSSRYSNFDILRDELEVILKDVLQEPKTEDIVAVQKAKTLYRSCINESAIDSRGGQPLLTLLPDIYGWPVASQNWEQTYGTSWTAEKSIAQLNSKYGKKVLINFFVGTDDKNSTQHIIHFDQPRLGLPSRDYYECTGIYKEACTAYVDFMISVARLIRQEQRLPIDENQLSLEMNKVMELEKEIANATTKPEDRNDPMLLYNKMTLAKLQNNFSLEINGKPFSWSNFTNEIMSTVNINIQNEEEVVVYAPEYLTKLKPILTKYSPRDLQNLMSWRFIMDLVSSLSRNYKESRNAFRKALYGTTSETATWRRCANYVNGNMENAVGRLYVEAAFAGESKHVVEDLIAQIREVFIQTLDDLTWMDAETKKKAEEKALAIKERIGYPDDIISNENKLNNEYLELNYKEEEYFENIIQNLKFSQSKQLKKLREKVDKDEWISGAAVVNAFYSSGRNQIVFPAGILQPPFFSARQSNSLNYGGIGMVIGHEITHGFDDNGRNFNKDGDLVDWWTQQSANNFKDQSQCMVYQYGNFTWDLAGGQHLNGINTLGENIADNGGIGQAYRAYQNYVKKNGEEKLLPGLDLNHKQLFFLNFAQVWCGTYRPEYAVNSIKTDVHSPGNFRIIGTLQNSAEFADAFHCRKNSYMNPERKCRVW
Method: The NEP-inhibitory activity was evaluated in rat kidney cortex membranes prepared according to the procedure described by T. Maeda et al. in Biochim Biophys.
Cortex was carefully dissected, finely minced and suspended in a homogenization buffer (10 mM sodium phosphate pH 7.4 containing 1 mM MgCl2, 30 mM NaCl, 0.02% NaN3) 1:15 weight/volume.
The tissue was then homogenized for 30 seconds using an Ultra-Turrax homogenizer.
The membranes were collected from the buffer/sucrose interface, washed twice with 50 mM TRIS/HCl buffer (pH 7.4) and resuspended into the same buffer for storage.
The NEP-inhibitory activity was evaluated according to the method described by C.
Incubation (20 minutes at 30° C.) was stopped by adding HCl 0.1M (100 μl).
The percentage of inhibition of the metabolite formation in the membrane preparations treated with the compounds of formula I and with the comparative compounds with respect to the untreated membrane preparations was expressed as IC50 (nM) value.

NEP [4] = target: T3, NEP; assay: Ex vivo NEP-inhibitory activity in kidneys of SHR after i.v. injection; parameters: After the removal of the kidneys from SHR, the renal tissue was homogenized; from tissue; host or cells: kidney homogenate of spontaneously hypertensive rats (SHR) dosed i.v; species or system spontaneously hypertensive rats (SHR); details: iv, 5 minutes after i.v. injection, 21 μmoles/kg, read-out: NEP-inhibitory activity (kidney) % of inhibition
Method: After the removal of the kidneys from SHR, the renal tissue was homogenized and incubated for 15 minutes at 37° C. in the presence of Glutaryl-Ala-Ala-Phe-2-naphthyliamide (GAAP), as a substrate, and aminopeptidase M at pH 7.6. The reaction was stopped by adding an aqueous solution at 10% of trichloroacetic acid.
The released 2-naphthylamine was determined by adding fast garnet dye (2 ml).

IC50 (ACE [1])	inhibition at 21 µmol/kg (ACE [2])	IC50 (NEP [3])	inhibition at 21 µmol/kg (NEP [4])	NEP-inhibitory activity IC50 (nM) (NEP [3])	SMILES
20 nM	25%	5.5 nM	20%	–	O=C(O)[C@H](Cc1ccccc1)NC(=O)[C@H](Cc1ccccc1)NP(=O)(O)CCCCc1ccccc1 [Compound R-1, N-[N′-(4-phenyl)butylphosphonyl-L-phenlalanyl]-L-phenylalanine dilithium salt]
–	–	–	–	not active	C[C@H](CS)C(=O)N1CCC[C@H]1C(=O)O [Captopril]
